Earlier results on 1 compound are cited in US11202786B2, “Synthetic bile acid compositions and methods” (ALLERGAN SALES, LLC, priority 2007, dated 2021).

Structures are written as SMILES.

The target of data set [1] is albumin (Homo sapiens, UniProt P02768). The note with it: 0.4 mg/mL deoxycholate (comparable to the fasting state), in the presence of 26 mg/mL of albumin.
For data set [2] the following is noted: neutral pH.

Chain of albumin (P02768 25-609): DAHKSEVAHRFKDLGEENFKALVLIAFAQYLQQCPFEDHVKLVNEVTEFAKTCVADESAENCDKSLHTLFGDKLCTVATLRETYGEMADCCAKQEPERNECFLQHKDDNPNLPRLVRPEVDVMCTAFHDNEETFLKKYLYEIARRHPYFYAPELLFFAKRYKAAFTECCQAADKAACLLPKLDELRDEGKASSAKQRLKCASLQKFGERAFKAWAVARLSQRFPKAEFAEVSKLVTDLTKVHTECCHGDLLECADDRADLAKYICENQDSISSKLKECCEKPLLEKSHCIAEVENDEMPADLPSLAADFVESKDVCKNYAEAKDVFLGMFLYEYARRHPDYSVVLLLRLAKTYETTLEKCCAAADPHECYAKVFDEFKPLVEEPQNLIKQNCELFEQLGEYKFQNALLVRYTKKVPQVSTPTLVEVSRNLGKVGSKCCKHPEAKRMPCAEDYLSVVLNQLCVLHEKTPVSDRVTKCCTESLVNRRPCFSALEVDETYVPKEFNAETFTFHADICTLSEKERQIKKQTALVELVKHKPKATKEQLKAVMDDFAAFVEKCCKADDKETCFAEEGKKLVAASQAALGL

In the case of `C[C@H](CCC(=O)[O-])[C@H]1CC[C@H]2[C@@H]3CC[C@@H]4C[C@H](O)CC[C@]4(C)[C@H]3C[C@H](O)[C@]12C.[Na+]` [Deoxycholate, sodium deoxycholate], the bound to albumin in data set [1] is 98%. The solubility in acetone result (acetone, compared with alcohol) is “even less soluble”. In addition, the soluble in water (water) was 333 mg/mL. For the same compound, the critical micelle concentration result in data set [2] is “approximately 2.4 mg/mL”.
